Read-outs that look alike come from different tables or passages of the source. Values belong to the molecule of their own block, whether it stands above or below them.
What was measured:
[1] = system: Human primary myoblasts (healthy donors 3, 1 and 5); experiment: MyoScreen hypertrophy assay on myotubes from healthy donors; assay type: cell-based; conditions: for EC50 / activity at 10 µM: Homo sapiens, Myoblast
Description: (§1) Healthy donor primary skeletal cells (Donor 1, Donor 3 and Donor 5) were Clonetics™ Human Skeletal Muscle Myoblasts (HSMM). In addition, cells from three DMD (Duchenne muscular dystrophy) donors (Donor Z, W and D1) and from a healthy donor (Donor A) were sourced.
(§2) Hypertrophy and Atrophy Rescue assays were performed using an in vitro fully automated human myotube model called MyoScreen™ (Cytoo, France). This model relies on a tight control of the microenvironment that guides the differentiation of human primary myoblasts. Myotubes formed on MyoScreen™ micropatterns present a high level of maturation together with a highly standardized morphology.
(§3) Human primary myoblasts from donors were seeded in MyoScreen™ micropatterned 96-well plates (Cytoo, France), let them adhere for 24 h in growth medium, then run the differentiation in a low horse serum medium for at least 5 days.
(§4) At Day 0, MyoScreen™ plates (Cytoo, France) containing micropatterns were pre-filled with 200 μl/well of growth medium and stored in the incubator at 37° C. Human primary myoblasts were detached from the flasks, count, and seeded into the plates with 15 000 cells per well in 100 μl of growth medium.
(§5) At Day 1, the growth medium was changed for a differentiation medium, 300 μl/well (DMEM with 0.1% horse serum) in which myoblasts started differentiating and forming myotubes.
(§6) At Day 2, the differentiation medium was changed. Then candidate compounds were diluted with differentiation medium and transferred into the plate. The final concentration of DMSO should be not higher than 0.1%. At least 6 wells were treated with the vehicle as a basal control, and 6 wells were treated with IGF-1 at 100 ng/ml as positive hypertrophy control.
(§7) At Day 6, cells were fixed with formalin 5% for 30 min at room temperature, then permeabilized with Triton X-100 at 0.1% in PBS for 15 min, and blocked with PBS+BSA 1% for 20 minutes. Myotubes were incubated with first antibody against Troponin T in blocking buffer for 1 h30, washed three times with PBS, incubated with secondary antibody and Hoescht ( 1/10000) for 1 h30, and washed three times with PBS.
(§8) Images were acquired at 10× magnification with an Operetta High Content Imaging System. Image processing and analysis were performed with dedicated algorithms developed on the Acapella High Content Imaging Software (Perkin Elmer) by CYTOO. Eleven fields per well were acquired.
First, segmentation of myotubes and nuclei were done using respectively the Troponin T staining intensity and the Hoechst staining. […] The threshold of segmentation was set-up in order to avoid detecting the background noise and eliminate aberrant small myotube structures.
(§9) Then, an image clean-up step was performed on the Troponin T images in order to remove myotubes that touch the border of the image. The final valid myotubes were used to extract myotube morphology parameters including the myotube width and area, and the number of nuclei per myotube.
Nuclei Count, Fusion Index, Mean myotube Area and Number of nuclei per myotube have been validated as relevant and sensitive readouts of myotube differentiation as well as atrophic and hypertrophic induction.
A primary screening was run to identify hypertrophy compounds that increase the myotube differentiation and size. Candidate compounds were tested at 10 μM in monoplicate on Donor 3 cells.
A retest was run, by cherry picking (same compound batch as primary screening): each hit was tested in the same conditions as in the Primary Screening (Donor 3, 10 μM) in six well replicates.

[2] = system: cells from DMD donors (Donor Z, W and D1); experiment: MyoScreen hypertrophy assay on myotubes from DMD donors; assay type: cell-based, human; conditions: fusion index (compound)*100/basal control; for Donor W (% Activity): DMD Donor W; for Donor Z (% Activity): DMD Donor Z; for Donor D1 (% Activity): DMD Donor D1
Description: as §1, §2, §3, §4, §5, §6, §7, §8
(§10) First, segmentation of myotubes and nuclei were done using respectively the Troponin T staining intensity and the Hoechst staining. One to two myotubes per micropattern were usually identified (a myotube is a troponin T staining area that includes at least 2 nuclei). The threshold of segmentation was set-up in order to avoid detecting the background noise and eliminate aberrant small myotube structures. At the end of this first step, specific readouts were calculated in the whole well, like the nuclei count and the fusion index (percentage of nuclei included in troponin T staining) Usually around 50 to 60 myotubes were detected per well in a control condition.
as §9

[3] = system: Donor Z (DMD donor) myotubes; experiment: Hypertrophy assay, combinations ALK5 inhibitor and glucocorticoid; assay type: cell-based, human; conditions: 4 days of treatment, prednisolone 10 nM, RepSox or GW788388 300 nM, alone or combined
[4] = system: AChR clusters in MyoScreen myotubes; experiment: Acetylcholine receptor clustering assay; assay type: cell-based, human; conditions: 8 days of differentiation including 7 days of drug treatment; for total AChR area increase: vs control myotubes
Description: The MyoScreen™ protocol was performed as described in the Hypertrophy and Atrophy rescue assay described in Example 1 but was stopped at Day 9 instead of Day 6. At the end of the assay, AchR were immunostained using a specific antibody in addition to Troponin T and nuclei. Images were acquired at ×20 with an Operetta High Content Imaging System from Perkin Elmer. Image processing and analyses were performed with a dedicated algorithm developed on the Acapella High Content Imaging Software (Perkin Elmer). Specific readouts were calculated in each well: nuclei count and myotube fusion index, number of AchR, AchR mean area, AchR total area normalized by the myotube total area.
Remarkably, when labeled with a specific anti-AChR antibody, MyoScreen myotubes at 6 days post-differentiation display AChR clusters punctuated along the sarcolemma membrane in the middle of the myotube fibre and in distinct regions at the ends of myotubes. To develop an automated AChR cluster assay, an AChR detection routine was developed that was sensitive and robust enough to analyze aggregate number and size clusters in images using the Operetta/Acapella system.

ACh-stimulated myotubes = experiment: Calcium flux assay after ACh stimulation; assay type: cell-based, human; conditions: for increase in [Ca2+]i peak amplitude compared to control myotubes: 20 μM ACh stimulation, myotubes differentiated 8 days, 7 days with compound
Description: Cells were then incubated for 1 h with 2 μM Fluo-4 AM (F14201-Invitrogen) in an incubator (37° C., 5% CO2). After washing to remove unloaded dye, myotube responses to 20 μM ACh (A6625-Sigma-Aldrich), were videoimaged. Stream acquisitions were set at 1 sec intervals and one field of view was acquired per well. Images were processed and analyzed automatically using a dedicated software developed in-house integrating the open-source ImageJ framework. The image analysis tool segments the myotubes in images acquired in the same well. The Fluo-4 total fluorescence intensity was measured inside each myotube and corrected for background. The total intensity was normalized to the myotube area to obtain the mean fluorescence intensity readout.

[5] = system: Myotubes from Donors 5 and A
Text: Cells were washed with calcium buffer containing (in mM): 130 NaCl, 5.4 KCl, 1.8 CaCl2, 0.8 MgCl2, 5.6 D-glucose, 10 Hepes, pH 7.4. […] After washing to remove unloaded dye, myotube responses to electrical stimulation pulses were monitored using the FDSS/μCELL/EFS from Hamamatsu Photonics. Twitch stimulations were run at 0.2 Hz with pulse width 50 ms 5V for 60 seconds. Tetanus stimulation was run at 30 Hz with pulse width 15 ms 3V for 20 seconds. The Fluo-4 total fluorescence intensity is measured in each well. For data presentation, fluorescence intensities (F) were normalized to the mean intensity of the first timepoints (F/F0).

[6] = system: Myotubes from the healthy donor 3 atrophied by TNF-α, IL-1β, Myostatin, TGF-β or dexamethasone; experiment: Atrophy rescue assay (MyoScreen); assay type: cell-based, human; design: key: +++: total rescue; ++: partial rescue; +: low rescue; conditions: for atrophy rescue, IL-1: atrophy inducer IL-1β 25 ng/mL; for atrophy rescue, TGF-β: atrophy inducer TGF-β 0.5 ng/mL; for atrophy rescue, TNF-alpha: atrophy inducer TNF-α 2 ng/mL; for atrophy rescue, dexamethasone: atrophy inducer dexamethasone 100 μM; for atrophy rescue, Myostatin: atrophy inducer myostatin 150 ng/mL
Description: as §2, §3, §4, §5, §6
For Atrophy Rescue assay, one hour after candidate compound addition, atrophy inducers were added at the following final concentration: 150 ng/mL of myostatin, 25 ng/mL of IL-1β, 2 ng/mL of TNF-α, 0.5 ng/mL of TGF-β and 100 μM of dexamethasone.
as §7, §8, §10, §9
Atrophy Rescue assays were performed in triplicate in the presence of atrophy inducers, i.e. TNF-α, IL-1β, Myostatin, TGF-β and dexamethasone.
Atrophy rescue assays was performed for RepSox. Myotubes from the healthy donor 3 were atrophied using different inducers: TNF-α, IL-1β, Myostatin, TGF-β and dexamethasone.

[7] = system: myotubes stimulated with 100 μM ACh; experiment: Contractile activity assay; assay type: cell-based, human; conditions: 5 days of differentiation including 4 days (96 h) treatment, RepSox 2 μM
Description: Cells were washed with calcium buffer as above. Myotube contraction was induced by addition of 100 μM ACh for 3 mins after which myotubes were fixed and immunostained with troponin T antibody. Automated acquisition was performed on the Operetta platform with a x10/0.3 NA objective. Detaching myotubes were automatically detected and quantified using Acapella, based on the detection of high intensity regions within the edges of segmented myotubes that mark the spots where the myotubes detached.

[8] = second dose response assay, healthy Donor 3, read-out: EC50
[9] = second dose response assay, healthy Donor 3
[10] = first dose response assay, healthy Donor 1
[11] = first dose response assay, healthy Donor 3
[12] = first dose response assay, healthy Donor 5

Molecule: Cc1cccc(-c2nn(C(=S)Nc3ccccc3)cc2-c2ccnc3ccccc23)n1 [A 83-01]
EC50 [1, 8]: 10 nM
% Activity [1, 9]: 127%

Molecule: NC(=O)c1ccc(-c2nc(-c3ccccn3)c(-c3ccc4c(c3)OCCO4)[nH]2)cc1 [D 4476]
EC50 [1, 8]: < 1 nM
% Activity [1, 9]: 128%

Molecule: O=C(NC1CCOCC1)c1ccc(-c2cc(-c3c[nH]nc3-c3ccccn3)ccn2)cc1 [GW 788388]
EC50 [1, 8]: 88 nM
% Activity [1, 9]: 130%
Donor W (% Activity) [2]: 118%
Donor Z (% Activity) [2]: 196%

Molecule: c1ccc(-c2n[nH]cc2-c2ccnc3ccccc23)nc1 [LY 364947]
EC50 [1, 8]: 25 nM

Molecule: C[C@]12C=CC(=O)C=C1CC[C@@H]1[C@@H]2[C@@H](O)C[C@@]2(C)[C@H]1CC[C@]2(O)C(=O)CO [Prednisolone, prednisolone]
increase in Fusion index [3]: 25%
increase in Myotube mean area [3]: does not enhance significantly

Molecule: Cc1cccc(-c2n[nH]cc2-c2ccc(F)c(-c3cnn(CCO)c3)c2)n1 [R268712]
EC50 [1, 8]: 1 nM
% Activity [1, 9]: 132%

Molecule: Cc1cccc(-c2n[nH]cc2-c2ccc3ncccc3n2)n1 [RepSox]
AChR clusters [4]: substantially more AChR clusters
total AChR area increase [4]: 6 fold
increase in [Ca2+]i peak amplitude compared to control myotubes (ACh-stimulated myotubes): 1.56 fold
number of retracting myotubes after ACh stimulation (ACh-stimulated myotubes; calcium flux time-lapse videos): marked increase
activity in dose responses on three healthy donors ([1]; Donors 3, 5 and 1): active on all donors
EC50 ([1]; first dose response assay, healthy Donor 1, read-out: Donor 1 EC50): 560 nM
EC50 ([1]; first dose response assay, healthy Donor 3, read-out: Donor 3 EC50): 5 nM
EC50 ([1]; first dose response assay, healthy Donor 5, read-out: Donor 5 EC50): 2.5 nM
activity at 10 µM ([1]; healthy Donor 3, 10 μM, monoplicate (IGF-1 100 ng/ml), % Activity = Myotube fusion index (compound)*100/Myotube Fusion index (basal control), read-out: Primary screening (% Activity)): 183%
activity at 10 µM ([1]; healthy Donor 3, 10 μM, six well replicates (IGF-1 100 ng/ml), fusion index vs basal control, read-out: Retest (% Activity)): 171%
EC50 [1, 8]: 5 nM
Donor 1 % Activity [1, 10]: 143%
Donor 3 % Activity [1, 11]: 140%
Donor 5 % Activity [1, 12]: 204%
increase in the fusion index or/and myotube area readouts ([1]; primary screening and retest, Donor 3, 10 μM): > 170%
% Activity [1, 9]: 140%
tetanus response ([5]; Donor 5 myotubes, RepSox 3 to 500 nM, tetanus stimulation 30 Hz, vs Control myotubes): increases with RepSox concentrations
calcium peak amplitude on repeated twitch electrical stimulations ([5]; Donor A and Donor 5 myotubes, RepSox 300 nM for 5 days, twitch 0.2 Hz): twice higher
increase in Fusion index [3]: 100%
increase in Myotube mean area [3]: 68%
Donor D1 (% Activity) [2]: 210%
Donor W (% Activity) [2]: 120%
Donor Z (% Activity) [2]: 176%
atrophy rescue, IL-1 [6]: ++
atrophy rescue, TGF-β [6]: +++
atrophy rescue, TNF-alpha [6]: ++
atrophy rescue, dexamethasone [6]: +++
atrophy rescue, Myostatin [6]: +++

Molecule: Cc1cccc(-c2[nH]c(C(C)(C)C)nc2-c2ccc3c(c2)OCO3)n1 [SB 505124]
EC50 [1, 8]: < 1 nM
% Activity [1, 9]: 136%

Molecule: Cc1cccc(-c2nc(C(C)(C)C)[nH]c2-c2ccc3nccnc3c2)n1 [SB 525334]
EC50 [1, 8]: 3 nM
% Activity [1, 9]: 142%

Molecule: Fc1ccc(Cl)cc1-c1nc(Nc2ccncc2)c2nccnc2n1 [SD208]
EC50 [1, 8]: 65 nM
% Activity [1, 9]: 138%

total AChR area increase [4]: no effect
Molecule: IGF-1: IGF-1 at 100 ng/ml as positive hypertrophy control
increase in [Ca2+]i peak amplitude compared to control myotubes (ACh-stimulated myotubes): no effect
Donor 1 % Activity [1, 10]: 150%
Donor 3 % Activity [1, 11]: 178%
Donor 5 % Activity [1, 12]: 185%
Primary screening (% Activity) ([1]; healthy Donor 3, 10 μM, monoplicate (IGF-1 100 ng/ml), % Activity = Myotube fusion index (compound)*100/Myotube Fusion index (basal control)): 210%
Retest (% Activity) ([1]; healthy Donor 3, 10 μM, six well replicates (IGF-1 100 ng/ml), fusion index vs basal control): 190%
% Activity [1, 9]: 178%
active contractile force (percentage of myotubes that exhibit strong contractions) [7]: 67±5%
increase in Fusion index [3]: 160%
increase in Myotube mean area [3]: 54%
Donor D1 (% Activity) [2]: 163%
Donor W (% Activity) [2]: 100%
Donor Z (% Activity) [2]: 143%
atrophy rescue, IL-1 [6]: +++
atrophy rescue, TGF-β [6]: ++
atrophy rescue, TNF-alpha [6]: +++
atrophy rescue, dexamethasone [6]: +++
atrophy rescue, Myostatin [6]: +++
